Where two headings read alike, the source gives them in different places. Each block holds one molecule with its values, some of them ahead of it.
Assays:
[1] = human, oral; cited from earlier work
[2] = Dog IV study with and without oral charcoal administration (Example 10); format: in vivo, male non-naïve Beagle dogs; details: 0.10 mg/kg
Procedure: A 0.1 mg/mL solution of Compound 1 in 10% DMSO/10% Solutol HS15/80% Saline was prepared as follows: • 1) 4.63 mg Compound 1 was weighed into appropriately sized tube. • 2) 4.57 mL of DMSO was added into the tube. Vortexed for 2 minutes. • 3) 4.57 mL of Solutol HS15 was added into above tube. Vortexed for 2 minutes. • 4) 36.54 mL of saline was added. Vortex for 1 minute.
A 100 mg/mL suspension of Activated Charcoal in Saline was prepared as follows: • 1) 300 g Activated Charcoal was weighed into appropriately sized tube. • 2) 3000 mL of saline was added into the tube. • 3) Mixture was stirred for 10 minutes, and then sonicated for 10 minutes.
Two groups of Male non-naïve beagles were used for the dog PK study (n=2 per group). The prepared oral formulation was administered via oral administration with 25 gram dose of activated charcoal to Group 2 animals. Immediately after the PO administration, the prepared IV formulation was administered via 10 minutes IV infusion to both Group 1 and Group 2 animals with appropriate dosing volume to achieve the respective doses. Group 1 animals were fed before administration. Group 2 animals were fasted overnight before administration and were fed at 4 hours post oral administration.
At each time point, approximately 0.5 mL of whole blood was collected into K2EDTA tubes. […] Plasma samples were stored at approximately −80° C. until analyzed by LC-MS.

[3] = predicted human PK by allometric scaling; details: allometric scaling from multiple species
[4] = biorelevant non-sink dissolution experiment; format: physicochemical; details: 37° C.
Procedure: The preliminary dissolution performance of the SD samples and bulk Compound 1 was tested in a biorelevant non-sink dissolution experiment. About 0.5 mg SD samples were dispersed into 6 mL SGF medium firstly and stirred magnetically with 250 rpm at 37° C. After 30 min, 5 mL cFaSSIF-V2 (2×) medium was added into the above medium and adjusted the pH to 6.5 with 100 μL NaHCO3 (80 g/L). At each time point of 15 and 30 min in SGF and 15, 30, 60, 120 min in FaSSIF, 0.5 mL suspension was taken out and centrifuged. The supernatants were analyzed by HPLC.

carbonic anhydrase II = test: carbonic anhydrase inhibition, CA II; format: biochemical
carbonic anhydrase I = test: carbonic anhydrase inhibition, CA I; format: biochemical
From the text: Carbonic anhydrase inhibition can be measured using a carbonic anhydrase I assay as described in Katritzky et al. (J. Med. Chem. 1987, 30:2058) and a […] as described in Iyer et al. (J. Biomol. Screen 2006, 11:782).

[5] = system: recurrent genital herpes (HSV); details: human, oral, 100, 200, 400 and 1200 mg vs placebo; cited from earlier work
genital HSV = details: human, oral, cited from earlier work
genital HSV-2 = details: human, oral, cited from earlier work
[6] = cited from earlier work

SMILES: C[C@@H](c1ccccc1)N(CC(=O)Nc1ccc(-c2csc(N)n2)cc1)C(=O)c1ccncc1 [BILS-179 BS]
adverse events in early clinical trials [1]: suspended in early clinical trials due to adverse events

clearance without versus with oral charcoal [2]: slower
overall exposure without versus with oral charcoal [2]: higher
predicted human clearance [3]: 0.06 L/h
Concentration in FaSSIF at 45 min ([4]; FaSSIF (pH 6.5), 45 min): 140 ng/mL
Concentration in FaSSIF at 60 min ([4]; FaSSIF (pH 6.5), 60 min): 120 ng/mL
Concentration in FaSSIF at 90 min ([4]; FaSSIF (pH 6.5), 90 min): 140 ng/mL
Concentration in FaSSIF at 150 min ([4]; FaSSIF (pH 6.5), 150 min): 120 ng/mL
Concentration in SGF at 15 min ([4]; SGF (pH 1.7), 15 min): 100 ng/mL
Concentration in SGF at 30 min ([4]; SGF (pH 1.7), 30 min): 70 ng/mL
SMILES: Cc1nc(N2CCCN(c3ccc(-c4cc(F)ccc4F)cc3)C2=O)sc1S(N)(=O)=O [Compound 1, 2-(3-(2′,5′-difluoro-[1,1′-biphenyl]-4-yl)-2-oxotetrahydropyrimidin-1(2H)-yl)-4-methylthiazole-5-sulfonamide]
carbonic anhydrase II inhibition (carbonic anhydrase II): no or low levels of carbonic anhydrase inhibition
carbonic anhydrase I inhibition (carbonic anhydrase I): no or low levels of carbonic anhydrase inhibition

SMILES: Cc1cccc(C)c1N(CC(=O)Nc1ccc(-c2ncon2)cc1)C(=O)C1CCS(=O)(=O)CC1 [amenamevir]
adverse events in early clinical trials [1]: suspended from early HSV clinical trials due to adverse events
time to lesion healing [5]: only significantly different between the very highest 1200 mg single dose group and the placebo-tested group

SMILES: Cc1nc(N(C)C(=O)Cc2ccc(-c3ccccn3)cc2)sc1S(N)(=O)=O [pritelivir, N-Methyl-N-(4-methyl-5-sulfamoyl-1,3-thiazol-2-yl)-2-[4-(pyridin-2-yl)phenyl]acetamide]
break-through shedding at 75 mg daily (genital HSV; 75 mg daily): break-through shedding remained
antiviral effect (genital HSV; daily 75 mg vs weekly 400 mg): An oral daily dose of 75 mg had the greatest antiviral effect and this was found to be superior to the less frequently administered weekly dose of 400 mg
number of days with lesions (genital HSV; genital herpes): reduced the number of days with lesions
rate of genital HSV shedding (genital HSV; high doses, 28 days): reduced the rate of genital HSV shedding
genital swabs with HSV shedding (genital HSV-2; 100 mg daily after 400 mg loading dose, 28 days): 2.4%
free fraction of total plasma concentration [6]: 2-3%
protein binding ([6]; plasma): 97-98%

SMILES: CC(C)[C@H](N)C(=O)OCCOCn1cnc2c(=O)[nH]c(N)nc21 [valacyclovir]
genital swabs with HSV shedding (genital HSV-2; 500 mg daily): 5.3%

Source: US20260294910A1, “ORAL PHARMACEUTICAL COMPOSITIONS” (Assembly Biosciences, Inc., priority 2023, published 2026)
